pIC50: −log10 of the molar value.

Test [1] deals with LPS-stimulated TNF-α release. The test is described as follows: LPS-induced TNF-α release in rat whole blood. It is filed as cell-based. Particulars: LPS 10 µg/mL. How it is done:
(§1) Heparinized whole blood was collected from the Aorta abdominalis of WI (Han) male rats (Charles River Laboratories, Sulzfeld, Germany) and from healthy male human donors, and treated with 1 µL (rat) or 2.5 µL (human) of BI 1015550 or vehicle [final DMSO concentration 0.5% (v/v)]. Final assay volumes were 200 μL (rat) and 500 μL (human). After incubation for 30 min at 37°C, 95% humidity, and 5% CO2, cultures were treated with LPS [final concentration 10 µg/mL (rat), 0.1 µg/mL (human)] or saline. After 7 h, plates were centrifuged at 3.200 × g at 4°C for 10 min and plasma was used for cytokine measurement. Meso Scale Discovery (MSD) (Rockville, MD, United States) rat and human pro-inflammatory panels were used for detection of TNF-α and IL-6 in rat plasma [diluted 1:2 (v/v)]) and human plasma [negative control undiluted, other samples diluted 1:200 (v/v)] according to the manufacturer’s instructions.

The test system of the next test is IPF-LF cells. The test is described as follows: bFGF plus IL-1β-induced proliferation of IPF lung fibroblasts (bromodeoxyuridine assay). It is filed as cell-based. Here is the method: Fibroblasts from donors with IPF (IPF-LF) (Asterand, Detroit, MI, United States) were grown in fibroblast basal medium (CC-3131, Lonza Walkersville, Inc., Walkersville, MD, United States) supplemented with FGM-2 SingleQuot Kit Supplements and Growth Factors (CC-4126, Lonza). Cells were grown in a humidified incubator at 37°C and 5% CO2. All assays were performed at passage 7 or 8. For assay set-up, cells were seeded in fibroblast growth medium plus supplements in assay-relevant densities. For TGF-β-stimulated assays, cells were seeded at 4,500 cells per well in 96-well plates. Proliferation assays were performed in 96-well plates at an initial seeding cell density on day 0 of 2,000 cells per well. After 24-h, the cell culture medium was changed to starvation medium (fibroblast basal medium without supplements). After a 24-h starvation period, cells were pre-incubated for 30 min with different concentrations of BI 1015550 plus/minus different concentrations of nintedanib and/or 1 nmol/L PGE2 and stimulated with the assay-relevant stimulus for the indicated time in the presence of the compound.
IPF-LF cells were stimulated with bFGF (20 ng/mL) plus IL-1β (30 pg/mL). After 72 h of stimulation, 10-times concentrated bromodeoxyuridine was added and the cells were incubated for another 18 h (final concentration bromodeoxyuridine 10 μmol/L). Cell proliferation was assessed by bromodeoxyuridine assay (Roche, Mannheim, Germany) according to the instruction manual.

The subject of test [2] is LPS-stimulated IL-6 release. The test is described as follows: LPS-stimulated IL-6 release in rat whole blood. The settings on record: high concentrations. It is filed as cell-based. How it is done: as §1
Test [3] deals with LPS-induced TNF-α release. The test can be described thus: LPS-induced TNF-α release in human PBMCs. The settings on record: 100 ng/mL LPS for 4 h. It counts as cell-based. Here is the method:
Blood was donated by internal donors at the Center for Occupational Health at Boehringer Ingelheim in Biberach an der Riss, Germany; the donors provided signed informed consent that allows use for scientific purposes. All research was performed in accordance with the principles stated in the Declaration of Helsinki. Ethical approval was provided by the Federal State Medical Association of Baden-Württemberg, reference no. F-2016–121. For preparation of peripheral blood mononuclear cells (PBMCs), 200 mL freshly drawn human blood from healthy donors was mixed with 50 mL acid-citrate-dextrose solution (38 mmol/L citric acid, 75 mmol/L tri-sodium citrate and 121 mmol/L glucose) and 50 mL Hanks buffered saline solution (Thermo Fisher Scientific, Carlsbad, CA, United States), overlaid on Ficoll and centrifuged for 30 min at 300 x g. PBMCs were diluted in RPMI-1640 medium (Thermo Fisher Scientific) containing 6% (v/v) autologous plasma to a concentration of 5 × 10^6 cells/mL. […] Supernatants were taken and cytokines measured by enzyme-linked immunosorbent assay (ELISA; Becton Dickinson, Franklin Lakes, NJ, United States).

The target in a further test is T1, PDE3A (Homo sapiens, UniProt Q14432).
T1 construct: made in house; host or cells: SF9 insect cells (baculovirus, Bac-To-Bac, pFastbac)
T1 sequence (Q14432 whole entry): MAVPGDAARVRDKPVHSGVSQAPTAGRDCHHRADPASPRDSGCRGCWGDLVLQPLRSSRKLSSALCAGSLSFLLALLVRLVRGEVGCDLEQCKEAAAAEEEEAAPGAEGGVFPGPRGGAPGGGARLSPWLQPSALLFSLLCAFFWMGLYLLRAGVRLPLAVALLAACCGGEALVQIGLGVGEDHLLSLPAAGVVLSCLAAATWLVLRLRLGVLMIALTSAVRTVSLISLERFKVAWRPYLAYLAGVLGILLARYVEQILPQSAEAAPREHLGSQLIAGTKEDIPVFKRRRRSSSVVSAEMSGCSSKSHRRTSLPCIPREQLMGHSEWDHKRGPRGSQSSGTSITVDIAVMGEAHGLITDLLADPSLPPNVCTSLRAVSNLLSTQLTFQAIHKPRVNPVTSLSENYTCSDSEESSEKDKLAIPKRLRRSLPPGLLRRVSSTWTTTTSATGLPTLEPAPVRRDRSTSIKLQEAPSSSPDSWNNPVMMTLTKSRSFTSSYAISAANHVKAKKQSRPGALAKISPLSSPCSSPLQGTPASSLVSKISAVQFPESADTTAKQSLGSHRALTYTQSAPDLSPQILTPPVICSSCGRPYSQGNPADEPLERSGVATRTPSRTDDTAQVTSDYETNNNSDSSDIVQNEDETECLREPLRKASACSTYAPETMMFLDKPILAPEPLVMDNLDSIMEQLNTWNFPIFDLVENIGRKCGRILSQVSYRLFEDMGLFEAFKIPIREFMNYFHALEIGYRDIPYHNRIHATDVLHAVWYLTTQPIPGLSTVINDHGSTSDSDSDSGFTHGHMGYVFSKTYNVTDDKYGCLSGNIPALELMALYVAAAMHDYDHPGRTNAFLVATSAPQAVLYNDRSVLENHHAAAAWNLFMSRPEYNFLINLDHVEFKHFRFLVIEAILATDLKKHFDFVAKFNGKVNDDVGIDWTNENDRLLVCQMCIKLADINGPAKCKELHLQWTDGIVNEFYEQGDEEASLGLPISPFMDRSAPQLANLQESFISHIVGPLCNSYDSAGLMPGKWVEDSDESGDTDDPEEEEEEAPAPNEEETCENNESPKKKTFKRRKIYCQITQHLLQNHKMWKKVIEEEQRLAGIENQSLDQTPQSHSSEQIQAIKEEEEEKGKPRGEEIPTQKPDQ
The test can be described thus: Recombinant PDE activity, scintillation proximity assay: PDE3A. It is filed as biochemical. The settings on record: calculated IC50. An excerpt:
For the preparation of human recombinant PDEs of interest, the Bac-To-Bac baculoviral expression system from Invitrogen (Carlsbad, CA, United States) was used according to the instruction manual. In short, the full-length open reading frames of PDE1C (National Center for Biotechnology Information Gene-Ref-Seq identifier NG_051183), PDE3A (NG_030033), PDE4A (NG_029594, AA 156–886), PDE4C (NG_029629), PDE7A (NG_029614), and PDE9A (NG_047067) were cloned into the plasmid vector pFastbac. For PDE4B and PDE4D, active site fragments were used (PDE4B NG_029038: AA 152–484, PDE4D NG_027957, AA 79–438). The plasmids were transformed into DH10Bac bacteria, SF9 insect cells were transfected with the bacmid DNA, and the resulting baculoviruses were stored and used for further rounds of infections. […] The protein content was measured and an equal volume of 87% (v/v) glycerol was added prior to freezing at −20°C. […] The reaction was stopped by addition of 50 µL of yttrium silicate scintillation proximity assay beads (17.8 mg/mL, 18 mM zinc sulfate in H2O) and the amount of produced [^3H]AMP/[^3H]GMP associated was determined using a Wallac Microbeta scintillation counter. […]

Turning to `[O-][S+]1CCc2nc(N3CCC(c4ncc(Cl)cn4)CC3)nc(NC3(CO)CCC3)c21` (stereo not shown) [BI 1015550], the “Extent of inhibition of TNF-α release” value in test [1] was “completely inhibited”. Also, the pIC50 in test [1] is 7.04; in the test on IPF-LF cells (IPF-LF, alone, read-out: IC50 bFGF plus IL-1β-induced cell proliferation) it was 6.59; in test [3] it was 7.46; at PDE3A it was 3.92. The “Additional inhibitory effects in combination, proliferation assay” value in the test with IPF-LF cells (combination with pirfenidone (100 µmol/L), data not shown) was “did not yield any additional inhibitory effects”. Also, in test [2], the “Increase of IL-6 compared with LPS-treated samples without PDE4 inhibitor” value is reported as “fourfold”.

(Values after PMC9065678, “BI 1015550 is a PDE4B Inhibitor and a Clinical Drug Candidate for the Oral Treatment of Idiopathic Pulmonary Fibrosis” (Frontiers in Pharmacology, 2022).)
